Measurements published in ChEMBL document CHEMBL1201862, “PubChem BioAssay data set” (2004).
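96-well plates; 48 h exposure; 5 concentrations. Endpoints by linear interpolation between flanking doses. Not reached: highest tested concentration assigned. The concentration for 50% growth inhibition is given as GI50.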 Activity calls are given as the source filed them. Rule as the data show it: active = GI50 up to about 1.1 µM and inactive = higher.

What was measured:
Experiment in all cases: growth of human tumour cells (NCI), 48 h
786-0 = tested on: 786-0
A549 = tested on: A549
COLO 205 = tested on: COLO 205
DU-145 = tested on: DU-145
HOP-62 = tested on: HOP-62
HOP-92 = tested on: HOP-92
HT-29 = tested on: HT-29
IGROV-1 = tested on: IGROV-1
K562 = tested on: K562
KM12 = tested on: KM12
MDA-MB-435 = tested on: MDA-MB-435
MOLT-4 = tested on: MOLT-4
OVCAR-3 = tested on: OVCAR-3
OVCAR-4 = tested on: OVCAR-4
RPMI-8226 = tested on: RPMI-8226
RXF 393 = tested on: RXF 393
SNB-19 = tested on: SNB-19
SNB-75 = tested on: SNB-75
UACC-257 = tested on: UACC-257
UACC-62 = tested on: UACC-62

| SMILES | GI50 (786-0) | GI50 (A549) | GI50 (COLO 205) | GI50 (DU-145) | GI50 (HOP-62) | GI50 (HOP-92) | GI50 (HT-29) | GI50 (IGROV-1) | GI50 (K562) | GI50 (KM12) | GI50 (MDA-MB-435) | GI50 (MOLT-4) | GI50 (OVCAR-3) | GI50 (OVCAR-4) | GI50 (RPMI-8226) | GI50 (RXF 393) | GI50 (SNB-19) | GI50 (SNB-75) | GI50 (UACC-257) | GI50 (UACC-62) |
| --- | --- | --- | --- | --- | --- | --- | --- | --- | --- | --- | --- | --- | --- | --- | --- | --- | --- | --- | --- | --- |
| Cc1cccc2c(N)c3cccc(C(=O)NCCN4CCOCC4)c3nc12 | 0.218 µM (active) | 0.192 µM (active) | 0.294 µM (active) | 0.482 µM (active) | 0.363 µM (active) | 3.48 µM (inactive) | 0.116 µM (active) | 0.224 µM (active) | 0.203 µM (active) | 0.301 µM (active) | 0.57 µM (active) | 0.0278 µM (active) | 1.47 µM (inactive) | 0.762 µM (active) | 0.493 µM (active) | 0.697 µM (active) | 0.236 µM (active) | 0.13 µM (active) | 0.912 µM (active) | 0.984 µM (active) |
| Nc1ccccc1SCc1csc(-c2ccc(Cl)cc2)n1 | 19.9 µM (inactive) | 24.5 µM (inactive) | 18 µM (inactive) | 34.5 µM (inactive) | 30.3 µM (inactive) | 21.9 µM (inactive) | 23.6 µM (inactive) | 23 µM (inactive) | 16.6 µM (inactive) | 20 µM (inactive) | 18.2 µM (inactive) | 4.39 µM (inactive) | 20.2 µM (inactive) | 21.8 µM (inactive) | 12.7 µM (inactive) | 24.5 µM (inactive) | 32.3 µM (inactive) | 46.7 µM (inactive) | 26.5 µM (inactive) | 20 µM (inactive) |
| C/C1=C\[C@@H](O)C(=O)/C=C/C=C\c2csc(n2)[C@@H](C)NC(=O)C[C@@]2(CC1)[S+]([O-])SC(=O)[C@]2(C)O (stereo not given in full) [LEINAMYCIN] | 0.00391 µM (active) | 0.12 µM (active) | 0.0149 µM (active) | 0.00679 µM (active) | 0.13 µM (active) | 0.00228 µM (active) | 0.04 µM (active) | 0.2 µM (active) | 0.00456 µM (active) | 0.0813 µM (active) | 0.0187 µM (active) | 0.00486 µM (active) | 0.0112 µM (active) | 0.0217 µM (active) | 0.00445 µM (active) | 0.0127 µM (active) | 0.284 µM (active) | 0.0252 µM (active) | 0.0298 µM (active) | 0.0124 µM (active) |
| O=C(O)Cc1ccccc1 [PHENYLACETIC ACID] | > 100 µM (inactive) | > 100 µM (inactive) | > 100 µM (inactive) | > 100 µM (inactive) | > 100 µM (inactive) | 11.4 µM (inactive) | > 100 µM (inactive) | > 100 µM (inactive) | > 100 µM (inactive) | > 100 µM (inactive) | > 100 µM (inactive) | > 100 µM (inactive) | > 100 µM (inactive) | > 100 µM (inactive) | > 100 µM (inactive) | > 100 µM (inactive) | > 100 µM (inactive) | > 100 µM (inactive) | > 100 µM (inactive) | > 100 µM (inactive) |
